In patent US10808008B2, “Aromatic-cationic peptides and uses of same” (Cornell University, priority 2012, dated 2020):
“Also recorded” adds a separate entry of the source. Where two headings read alike, the source gives them in different places.

Experiments:
[1] = system: isolated rat kidney mitochondria / cytochrome c-deficient mitoplasts; assay: Fluorescence quenching by isolated mitochondria or cytochrome c-deficient mitoplasts; assay type: binding
Procedure: The quenching by cytochrome c was not displaced by sequential additions of bovine serum albumin (FIG. 12C, A+arrows) (500 μg/ml). […] Accordingly, aromatic-cationic peptides of the present disclosure are useful for the prevention or treatment of diseases or disorders characterized by dysregulation of cytochrome c.
Uptake of [atn]SS-02 by isolated mitochondria or cytochrome c-deficient mitoplasts was determined by fluorescence quenching of [atn]SS-02 (λex/λem=320/420) upon addition of a fresh mitochondrial or mitoplast suspension (0.35 mg).
Mitochondria were isolated from the kidney of male Sprague-Dawley rats (Charles River Laboratories International, Inc., Wilmington, Mass.) weighing 250 to 300 g. Excised kidneys were cut and incubated in wash buffer (200 mM mannitol, 10 mM sucrose, 5 mM HEPES, 1 g/L fatty-acid-free BSA, to pH to 7.4 with KOH) on ice for 10 minutes. Samples were washed 2 times in isolation buffer (wash buffer with 1 mM EGTA), homogenized for 3 minutes, and then centrifuged in 20 ml of isolation buffer at 900×g for 10 minutes. The white fatty acid layer was then removed and the […]. The supernatant was centrifuged at 11,000×g for 10 minutes, and the pellet was re-suspended in 800 μl of wash buffer and kept on ice for further analysis.
Mitoplasts deficient in cytochrome c were prepared by first treating fresh or once-frozen mitochondria with 3.3 mg/ml digitonin for 45 minutes on ice, in order to remove the mitochondrial outer membrane. To remove electrostatically-bound cytochrome c, […] pH 7.4 was then added to the mix and centrifuged at 19,000×g for 30 minutes. The pellet was collected and re-dissolved in wash buffer and stored on ice until use. Only mitoplast preparations that responded to the addition of 200 nM exogenous cytochrome c by 4-5 fold increase in mitochondrial respiration (oxygen consumption) were used in the study. […]

cytochrome c = cytochrome c (Equus caballus, UniProt P00004); assay: Cytochrome c reduction kinetics (absorption spectroscopy); assay type: biochemical
Procedure: Increasing amounts of aromatic-cationic peptides were added to a solution of oxidized cytochrome c. The formation of reduced cytochrome c was monitored by absorbance at […]. The rate of cytochrome c reduction was determined by non-linear analysis (Prizm software).
Time-resolved UV-Visible absorption spectroscopy was used to study the electron transport process of cytochrome c in the presence of peptides. Reduced cytochrome c was monitored by absorbance at a broad-band spectral range (200-1100 nm). The absorption changes were recorded with a UV/Visible spectrophotometer (Ultrospec 3300 pro, GE) in quartz cells with path lengths of 1 or 2 mm. N-acetylcysteine (NAC) and glutathione were used as electron donors to reduce oxidized cytochrome c. The rate constant of cytochrome c reduction was estimated by adding various concentrations of peptides. The dose dependence of the peptides was correlated to the cytochrome c reduction kinetics.
Absorption spectroscopy (UltroSpec 3300 Pro; 220-1100 nm) was used to determine if SS-31 modulates cytochrome c reduction (FIG. 1). Reduction of cytochrome c with glutathione is associated with multiple shifts in the Q band (450-650 nm), with a prominent shift at 550 nm. […] Accordingly, the aromatic-cationic peptides of the present disclosure are useful for altering the structure and oxidation state of cytochrome c, and are useful for the prevention or treatment of diseases or disorders characterized by dysregulation of cytochrome c.
Reduction of cytochrome c was monitored by increase in absorbance at 550 nm. […] Similar results were obtained using N-acetylcysteine (NAC) as a reducing agent (not shown). […] Accordingly, aromatic-cationic peptides of the present disclosure are useful for the prevention or treatment of diseases or disorders characterized by dysregulation of cytochrome c and are useful for facilitating cytochrome c reduction.

[2] = system: cytochrome c-depleted mitoplasts; assay: Respiration in cytochrome c-depleted mitoplasts; assay type: biochemical, rat
Procedure: Rates of respiration were measured in the presence of 500 μM Succinate with or without 100 μM SS-31. The experiment was carried out in triplicate, with n=3. […] Accordingly, aromatic-cationic peptides of the present disclosure are useful for the prevention or treatment of diseases or disorders characterized by dysregulation of cytochrome c.
A model of cytochrome c tightly bound to mitochondrial cardiolipin was used to investigate interaction of SS-31 with cytochrome c-CL complex in mitochondria. After removal of outer membrane with digitonin, mitoplasts were washed with 120 mM KCl to remove all free and electrostatically associated cytochrome c, leaving only cytochrome c tightly bound to CL.

[3] = target: T1, horse radish peroxidase (HRP) (Armoracia rusticana, UniProt P00433); assay: Horseradish peroxidase activity (Amplex Red); assay type: biochemical; conditions: data not shown
T1 sequence (P00433 31-338 limits assumed): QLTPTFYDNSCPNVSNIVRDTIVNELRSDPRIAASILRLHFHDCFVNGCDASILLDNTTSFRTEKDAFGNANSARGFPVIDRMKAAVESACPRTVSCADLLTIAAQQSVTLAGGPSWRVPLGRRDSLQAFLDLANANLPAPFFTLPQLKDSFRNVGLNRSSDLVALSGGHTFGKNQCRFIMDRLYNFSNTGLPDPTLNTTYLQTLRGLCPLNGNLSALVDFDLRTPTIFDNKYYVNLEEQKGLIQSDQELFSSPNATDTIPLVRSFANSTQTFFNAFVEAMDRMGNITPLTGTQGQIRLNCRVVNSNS

cytochrome c, sequence (P00004 2-105 limits assumed): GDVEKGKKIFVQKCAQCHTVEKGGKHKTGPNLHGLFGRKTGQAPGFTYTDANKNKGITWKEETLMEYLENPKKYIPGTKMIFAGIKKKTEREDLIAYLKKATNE

“2′,6′-Dmt-D-Arg-Phe-(atn)Dap-NH2 [SS-19]” was tested, and the “quenching of fluorescence by cytochrome c-depleted/deficient mitoplasts versus mitochondria” value [1] was “significantly reduced”, the “quenching of fluorescence by isolated mitochondria” value ([1]; 10 μM peptide, 0.2 mg mitochondria) was “quenched by sequential addition of 0.2 mg isolated rat renal kidney mitochondria” and the “quenching of fluorescence by cytochrome c-depleted/deficient mitoplasts versus mitochondria” value ([1]; listed as [atn]SS-02) was “appreciable in cytochrome c-deficient mitoplasts but was less than in intact mitochondria”.
For D-Arg-2′,6′-Dmt-Lys-Phe-NH2 [SS-31], the “rate of NAC-induced cytochrome c reduction” value (cytochrome c; N-acetylcysteine (NAC) as reducing agent) was “dose-dependently increased the rate of NAC-induced cytochrome c reduction”, the “rate (kinetics) of cytochrome c reduction” value (cytochrome c; glutathione (GSH) as reducing agent, absorbance at 550 nm) was “increased the rate of cytochrome c reduction; also recorded: accelerate the kinetics of cytochrome c reduction” and the “reduction of cytochrome c by peptide alone” value (cytochrome c; peptide alone at 100 μM) was “did not reduce cytochrome c”. For the same substance, the “spectral weight shift in Q band of cytochrome c” value (cytochrome c; reduction of cytochrome c with glutathione) was “significant spectral weight shift at 550 nm”, the “respiration (O2 consumption) in cytochrome c-depleted mitoplasts” value ([2]; 500 μM succinate, 100 μM SS-31) was “Enhances Respiration in Cytochrome c-Depleted Mitoplasts” and the “complex II respiration in mitoplasts with tightly bound cytochrome c” value ([2]; mitoplasts washed with 120 mM KCl) was “enhances complex II respiration in mitoplasts with cytochrome c tightly bound to inner mitochondrial membrane in a dose-dependent manner”. The HRP activity [3] was “no effect”.
